Data as given in patent publication US5173297A, “Bacteriocin from Lactococcus lactis subspecies lactis” (Quest International Flavors & Food Ingredients Company …, priority 1991, dated 1992).

Columns and labels:
Assay in all cases: Spectrum of antimicrobial activity
Design in all cases: key: + = inhibition; - = no inhibition
Details in all cases: pure, titer 3200 AU/ml
L. plantarum 346 = format: cell-based, Lactobacillus plantarum
L. plantarum 355 = format: cell-based, Lactobacillus plantarum
L. casei 326 = format: cell-based, Lactobacillus casei
L. casei 842 = format: cell-based, Lactobacillus casei
L. brevis 329 = format: cell-based, Lactobacillus brevis
L. brevis 888 = format: cell-based, Lactobacillus brevis
L. fermentum 342 = format: cell-based, Lactobacillus fermentum
L. fermentum 701 = format: cell-based, Lactobacillus fermentum
P. acidilactici PAC 1.0 = format: cell-based, Pediococcus acidilactici
P. acidilactici A = format: cell-based, Pediococcus acidilactici
P. acidilactici B = format: cell-based, Pediococcus acidilactici
P. acidilactici C = format: cell-based, Pediococcus acidilactici
P. acidilactici D = format: cell-based, Pediococcus acidilactici
P. pentosaceus FBB63C = format: cell-based, Pediococcus pentosaceus
Protocol: Colonies appearing on the agar plates were screened for antibacterial activity against a selected indicator, which usually predicted a wide antibacterial spectrum. The indicator chosen was Pediococcus pentosaceus FBB63C (Gonzalez, C. F., and B. S. Kunka, Appl. Environ. Microbiol. 53:2534-2538 (1987) and U.S. Pat. No. 4,883,673 to Gonzalez. Antibacterial activity was determined by picking colonies to replicate agar plates containing 1.9% sodium beta-glycerophosphate as buffer and after appearance of colonies overlaying with indicator.
To ascertain if the antibacterial substance is secreted into liquid medium, the cultures were grown in MRS broth and cell free filtrates of turbid cultures were made and the filtrate posted on a seeded semisolid agar overlay of the indicator. Antibacterial activity was quantitated by assigning arbitrary units. One arbitrary unit (AU) was defined as 5 μl of the culture supernatant yielding a definite, clear zone of inhibition on the indicator lawn. The titer was expressed as the reciprocal of the highest dilution of supernatant showing inhibition.

L. monocytogenes 04 = format: cell-based, Listeria monocytogenes
L. monocytogenes 08 = format: cell-based, Listeria monocytogenes
L. monocytogenes 36 = format: cell-based, Listeria monocytogenes
L. monocytogenes 38 = format: cell-based, Listeria monocytogenes
L. monocytogenes 59 = format: cell-based, Listeria monocytogenes
L. monocytogenes 62 = format: cell-based, Listeria monocytogenes
L. monocytogenes 69 = format: cell-based, Listeria monocytogenes
S. mutans GS5 = format: cell-based, Streptococcus mutans
S. mutans V262 = format: cell-based, Streptococcus mutans
B. subtilis RM125 = format: cell-based, Bacillus subtilis
B. subtilis amylase^+ = format: cell-based, Bacillus subtilis
L. lactis LLA 1.0 = format: cell-based, Lactococcus lactis
L. lactis LLA 2.0 = format: cell-based, Lactococcus lactis

nisin [Nisin Pure]
inhibition of indicator strain L. plantarum 346 (L. plantarum 346): + | inhibition of indicator strain L. plantarum 355 (L. plantarum 355): + | inhibition of indicator strain L. casei 326 (L. casei 326): + | inhibition of indicator strain L. casei 842 (L. casei 842): + | inhibition of indicator strain L. brevis 329 (L. brevis 329): + | inhibition of indicator strain L. brevis 888 (L. brevis 888): + | inhibition of indicator strain L. fermentum 342 (L. fermentum 342): + | inhibition of indicator strain L. fermentum 701 (L. fermentum 701): + | inhibition of indicator strain P. acidilactici PAC 1.0 (P. acidilactici PAC 1.0): + | inhibition of indicator strain P. acidilactici A (P. acidilactici A): + | inhibition of indicator strain P. acidilactici B (P. acidilactici B): + | inhibition of indicator strain P. acidilactici C (P. acidilactici C): + | inhibition of indicator strain P. acidilactici D (P. acidilactici D): + | inhibition of indicator strain P. pentosaceus FBB63C (P. pentosaceus FBB63C): + | inhibition of indicator strain L. monocytogenes 04 (L. monocytogenes 04): + | inhibition of indicator strain L. monocytogenes 08 (L. monocytogenes 08): + | inhibition of indicator strain L. monocytogenes 36 (L. monocytogenes 36): + | inhibition of indicator strain L. monocytogenes 38 (L. monocytogenes 38): + | inhibition of indicator strain L. monocytogenes 59 (L. monocytogenes 59): + | inhibition of indicator strain L. monocytogenes 62 (L. monocytogenes 62): + | inhibition of indicator strain L. monocytogenes 69 (L. monocytogenes 69): + | inhibition of indicator strain S. mutans GS5 (S. mutans GS5): + | inhibition of indicator strain S. mutans V262 (S. mutans V262): - | inhibition of indicator strain B. subtilis RM125 (B. subtilis RM125): + | inhibition of indicator strain B. subtilis amylase^+ (B. subtilis amylase^+): + | inhibition of indicator strain L. lactis LLA 1.0 (L. lactis LLA 1.0): + | inhibition of indicator strain L. lactis LLA 2.0 (L. lactis LLA 2.0): +
